Laboratory results taken from EP0354042A2, “Aminobenzoic-acid derivatives to reduce side effects induced by an administration of immuno-suppressant” (priority 1988, dated 1990).

Key:
Wistar male rats [1] = test: Saccharide tolerance test (pancreas function) of rats given CsA with the present substance; type: in vivo; conditions: CsA 25 mg/kg/day i.p. 3 weeks plus present substance 300 mg/kg/day orally
Protocol: (§1) Various clearance tests and a saccharide tolerance test were performed after completion of the administrations. Then, after sacrificing the rats, their blood was taken for serum biochemical and general blood tests.

Bacillus subtilis H17 = test: Mutagenicity Rec-assay, recombination repair proficient strain
Protocol: (§2) First, mutagenecity was studied with Rec-assay. […] The present substance was dissolved with sterlized water, 0.05 ml of the solution was absorbed by a round filter paper having a diameter of 8 mm and immediately the filter paper was laid on the medium (B-II agar) in a manner to cover each of the satrt point of the streak. Then, the mdium was cultured for 16 hours at a temperature of 37°C and measured growth inhibited area. Kanamycin was used as a negative control and mitomycin as a positive control.

Wistar male rats [2] = test: Kidney function (inulin clearance, serum creatinine) of rats given CsA with the present substance; type: in vivo; conditions: CsA 25 mg/kg/day i.p. 3 weeks plus present substance 300 mg/kg/day orally
Protocol: as §1

Bacillus subtilis M45 = test: Mutagenicity Rec-assay, recombination repair deficient strain; conditions: for Growth Inhibited Area M45 - H17: difference between strains
Protocol: as §2

Jcl:ICR mice = test: Acute toxicity (LD50, Litchfield-Wilcoxon); type: in vivo; conditions: observed 7 days; for LD₅₀ Value Intraperitoneal: in physiological saline solution; for LD₅₀ Value Oral: oral by stomach sonde, in distilled water
Protocol: The acute toxicity was studied with Jcl:ICR mice through intraperitoneal route and oral route. For intraperitoneal route, the present substance was dissolved in a physiological saline solution and a predetermined dose of the substance was administered with an injector to the cavity. For oral route, the present substance was dissolved in a distilled water and administered forcibly through a stomach sonde.
After the administration, observation of toxicopathic symptoms of the mice were continued for 7 days and based on time to time death rates of the mice, LD₅₀ values were calculated. Both surviving and dead mice were anatomized and observed certain organs.

[3] = system: TA98 of Salmonella typhimurium; test: Reversion assay (reversion colony test) TA98; type: cell-based
Protocol: (§3) In addition, a reversion assay was performed using TA98 and TA100 of Salmonella typhimurium (both are histidine-requiring bacteria).
(§4) 10% by volume of 0.5 mM bithion solution containing 0.5 mM histidine was added to a soft agar solution (prepared with 6g of NaCl, 6g of agar and 1,000 ml of distilled water). Then, 0.1 ml of a solution containing 1 x 10⁸ of the bacteria and 0.1 ml of a solution of the present substance were added to 2 ml of the soft agar solution, mixed well and obtained soft agar solution was multilayered on a minimal agar medium. The medium layered was cultured at 37°C for 2 days and number of reversion colonies was counted. Furylfuramide (AF2) was used as a positive control.

Wistar male rats [4] = test: Serum biochemical test, total bilirubin (liver function) of rats given CsA with the present substance; type: in vivo; conditions: CsA 25 mg/kg/day i.p. 3 weeks plus present substance 300 mg/kg/day orally
Protocol: as §1

[5] = system: TA100 of Salmonella typhimurium; test: Reversion assay (reversion colony test) TA100; type: cell-based
Protocol: as §3, §4

human lymphocyte = test: Mixed lymphocyte culture, 3H-thymidine uptake (proliferation of lymphocytes); type: cell-based; conditions: CsA 0.1 µg/ml plus present substance 100 µg/ml, cultured 6 days;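 further: percent suppression of proliferation derived from uptake with CsA alone versus CsA plus substance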
Protocol: A mixture of 50 µl of human lymphocyte (1.6 x 10⁶/ml) with 50 µl of the lymphocytes treated with mitomycin C (MMC) (1.7 x 10⁶/ml) was cultured for 6 days and an uptake of ³H-thymidine, an index of proliferation of lymphocyte, was studied. The medium used for culture comprised bovine fetal serum (10% in quantity) and RPMI 1640 (90% in quantity). […] From the calculated ratio, the effects of the present substance on immuno function were studied.

[6] = Body weight of rats given CsA with the present substance; type: in vivo, Wistar male rats; conditions: at completion of the test; CsA 25 mg/kg/day i.p. 3 weeks plus present substance 300 mg/kg/day orally
Protocol: as §1

[7] = 5,000 µg/disk, 16 hours at 37°C
[8] = 5,000 µg/disk, 37°C for 2 days, Drug-free Control 13
[9] = 5,000 µg/disk, 37°C for 2 days, Drug-free Control 149

Compound	Blood sugar value measured 10 minutes after the test (Wistar male rats [1]) [mg/dL]	Insuline Value 10 Min.After The Test (Wistar male rats [1]) [mµ/ml]	Insuline Value Before The Test (Wistar male rats [1]) [mµ/ml]	Growth Inhibited Area H17 (Bacillus subtilis H17; 500 µg/disk, 16 hours at 37°C) [mm]	Growth Inhibited Area H17 (Bacillus subtilis H17; [7]) [mm]	Kidney Function Inulin Clearance (Wistar male rats [2]) [mL/min]	Kidney Function Serum Creatinine (Wistar male rats [2]) [mg/dL]	Growth Inhibited Area M45 (Bacillus subtilis M45; 500 µg/disk, 16 hours at 37°C) [mm]	Growth Inhibited Area M45 - H17 (Bacillus subtilis M45; 500 µg/disk) [mm]	Growth Inhibited Area M45 (Bacillus subtilis M45; [7]) [mm]	Growth Inhibited Area M45 - H17 (Bacillus subtilis M45; 5,000 µg/disk) [mm]	LD₅₀ Value Intraperitoneal (Jcl:ICR mice) [mg/kg]	LD₅₀ Value Oral (Jcl:ICR mice) [mg/kg]	No. of Reversion Colony TA98 [3, 8] [n/plate]	TBI (seerum total bilirubin value) (Wistar male rats [4]) [mg/dL]	No. of Reversion Colony TA100 [5, 9] [n/plate]	Depressing Ratio (human lymphocyte) [%]	Body Weight [6] [g]	other results
O=C(O)c1ccccc1NC1OC[C@@H](O)[C@H](O)[C@H]1O (stereo partly drawn) [Compound 8, o-Aminobenzoic acid-N-D-xyloside]	605	6.18	4.21	0	3	1.72	0.65	0	0	7	4	9270	6350	4	0.38	166	27	211	–
O=C(O)c1ccc(NC2OC[C@H](O)[C@H](O)[C@H]2O)cc1 (stereo partly drawn) [Compound 2, p-Aminobenzoic acid-N-L-arabinoside]	588	6.12	4.02	0	0	1.81	0.65	0	0	0	0	10220	10800	3	0.35	51	26	220	–
O=C([O-])c1ccccc1NC1O[C@H](CO)[C@H](O)[C@H](O)[C@H]1O.[Na+] (stereo partly drawn) [Compound 16, o-Aminobenzoic acid-N-D-galactoside]	587	6.16	4.22	0	1	1.81	0.65	0	0	6	5	7420	6100	6	0.34	151	26	210	–
O=C(O)c1ccc(NC2O[C@H](CO)[C@@H](O)[C@H](O)[C@H]2O)cc1 (stereo partly drawn) [Compound 10, p-Aminobenzoic acid-N-D-glucoside]	612	6.02	4.05	0	0	1.85	0.65	0	0	0	0	> 15000	> 15000	11	0.36	104	26	235	–
O=C(O)c1ccc(NC2O[C@H](CO)[C@H](O)[C@H](O)[C@H]2O)cc1 (stereo partly drawn) [Compound 14, p-Aminobenzoic acid-N-D-galactoside]	584	6.10	4.13	0	0	1.88	0.66	0	0	0	0	12000	14550	7	0.33	51	26	215	–
O=C(O)c1ccc(NC2OC[C@@H](O)[C@H](O)[C@H]2O)cc1 (stereo partly drawn) [Compound 6, p-Aminobenzoic acid-N-D-xyloside]	598	6.20	4.28	0	0	1.70	0.66	0	0	0	0	11040	11750	4	0.35	58	26	208	–
NC(=O)/C(=C\c1ccc([N+](=O)[O-])o1)c1ccco1 [Furylfuramide (AF2), Furylfuramide, reference compound]	–	–	–	–	–	–	–	–	–	–	–	–	–	–	–	–	–	–	No. of Reversion Colony TA98 ([3]; 0.1 µg/disk, positive control): 167 n/plate; No. of Reversion Colony TA100 ([5]; 0.1 µg/disk, positive control): 911 n/plate
NC[C@H]1O[C@H](O[C@H]2[C@H](O)[C@@H](O[C@H]3O[C@H](CO)[C@@H](O)[C@H](N)[C@H]3O)[C@H](N)C[C@@H]2N)[C@H](O)[C@@H](O)[C@@H]1O [Kanamycin, reference compound]	–	–	–	–	–	–	–	–	–	–	–	–	–	–	–	–	–	–	Growth Inhibited Area H17 (Bacillus subtilis H17; Bacillus subtilis, 16 h, 10 µg/disk, pH 7): 4 mm; Growth Inhibited Area M45 (Bacillus subtilis M45; 10 µg/disk, negative control): 5 mm; Growth Inhibited Area M45 - H17 (Bacillus subtilis M45; 10 µg/disk, negative control): 1 mm
